Activity calls are given as the source filed them. No cut-off for these calls is given here.
Experiments:
Calf thymus DNA [1] = experiment: Binding affinity to calf thymus DNA at pH 7.4 by UV-visible spectrophotometer; assay type: nucleic-acid assay; conditions: Bos taurus
L1210 [2] = experiment: Cytotoxicity against mouse L1210 cells after 72 hrs by MTT assay; assay type: functional, cell-based; conditions: L1210, 72 h
U-937 = experiment: Induction of apoptosis in human U937 cells assessed as DNA fragmentation at 122 uM after 18 hrs by ethidium bromide staining agarose gel electrophoresis; assay type: functional, cell-based
Bos taurus [3] = species: Bos taurus; experiment: Inhibition of calf thymus topoisomerase 1-mediated supercoiled DNA relaxation at 5 uM after 45 mins by ethidium bromide staining agarose gel electrophoresis
L1210 [4] = experiment: Cytotoxicity against mouse L1210 cells after 48 hrs by MTT assay; assay type: functional, cell-based; conditions: L1210, 48 h
HL-60 [5] = experiment: Cytotoxicity against human HL60 cells at 3 to 10 uM after 72 hrs; assay type: functional, cell-based
Bos taurus [6] = species: Bos taurus; experiment: Inhibition of calf thymus topoisomerase 1-mediated supercoiled DNA relaxation at 40 uM after 45 mins by ethidium bromide staining agarose gel electrophoresis
L1210 [7] = experiment: Cytotoxicity against mouse L1210 cells after 48 hrs by trypan blue dye exclusion test; assay type: functional, cell-based; conditions: L1210, 48 h
Calf thymus DNA [8] = experiment: Binding affinity to calf thymus DNA assessed as hypochromic effect by UV-visible spectrophotometer; assay type: nucleic-acid assay; parameters: concentration or dose not given beside the values; conditions: Bos taurus
HL-60 [9] = experiment: Antiproliferative activity against human HL60 cells assessed as cytostatic effect at 1 uM after 72 hrs; assay type: functional, cell-based
HL-60 [10] = experiment: Drug uptake in human HL60 cells assessed as drug distribution in plasmatic membrane and cytosol at 5 uM after 4 hrs by fluorescence analysis; assay type: ADME, cell-based; conditions: hl-60, 4 h
L1210 [11] = experiment: Cytotoxicity against mouse L1210 cells after 72 hrs by trypan blue dye exclusion test; assay type: functional, cell-based; conditions: L1210, 72 h
HL-60 [12] = experiment: Drug uptake in human HL60 cells assessed as drug accumulation in nucleus at 5 uM after 24 hrs by fluorescence analysis; assay type: ADME, cell-based; conditions: hl-60, 24 h
[13] = Octanol-water partition coefficient, log P of the compound; assay type: physicochemical
HL-60 [14] = experiment: Cytotoxicity against human HL60 cells after 48 hrs by MTT assay; assay type: functional, cell-based; conditions: HL-60, 48 h
HL-60 [15] = experiment: Cytotoxicity against human HL60 cells after 72 hrs by trypan blue dye exclusion test; assay type: functional, cell-based; conditions: HL-60, 72 h
HL-60 [16] = experiment: Drug uptake in human HL60 cells assessed as drug accumulation at 5 uM after 140 mins by fluorescence analysis; assay type: ADME, cell-based; conditions: hl-60, 140 min
HL-60 [17] = experiment: Cytotoxicity against human HL60 cells after 72 hrs by MTT assay; assay type: functional, cell-based; conditions: HL-60, 72 h
Calf thymus DNA [18] = experiment: Binding affinity to A:T base pair region of calf thymus DNA by UV-visible spectrophotometer; assay type: nucleic-acid assay; conditions: Bos taurus
Calf thymus DNA [19] = experiment: Binding affinity to C:G base pair region of calf thymus DNA by UV-visible spectrophotometer; assay type: nucleic-acid assay; conditions: Bos taurus
HL-60 [20] = experiment: Cytotoxicity against human HL60 cells after 48 hrs by trypan blue dye exclusion test; assay type: functional, cell-based; conditions: HL-60, 48 h

| Compound | K (Calf thymus DNA [1]) [×10⁵ /M] | inhibition (Bos taurus [3]) | inhibition (Bos taurus [6]) | Activity (Calf thymus DNA [8]) [%] | Drug uptake (HL-60 [10]) | Drug uptake (HL-60 [12]) | logP [13] | Drug uptake (HL-60 [16]) | Activity (Calf thymus DNA [18]) | Activity (Calf thymus DNA [19]) | IC50 (L1210 [2]) [µM] | Activity (U-937) | IC50 (L1210 [4]) [µM] | IC50 (L1210 [7]) [µM] | IC50 (L1210 [11]) [µM] | IC50 (HL-60 [14]) [µM] | IC50 (HL-60 [15]) [µM] | IC50 (HL-60 [17]) [µM] | IC50 (HL-60 [20]) [µM] | also measured |
| --- | --- | --- | --- | --- | --- | --- | --- | --- | --- | --- | --- | --- | --- | --- | --- | --- | --- | --- | --- | --- |
| CCCCCCN1C(=O)CN/C1=N\c1ccc2cc3ccc(/N=C4\NCC(=O)N4CCCCCC)cc3nc2c1.Cl | 1.9 | inactive | Active | 47 | Active | Active | 5.88 | Active | inactive | Active | 5.99 | Active | 5.52 | 4.31 | 5.28 | 4.61 | 2.12 | 4.94 | 2.44 | Activity (HL-60 [5]): Toxic; Activity (HL-60 [9]): Active |
| CCN1C(=O)CN/C1=N\c1ccc2cc3ccc(/N=C4\NCC(=O)N4CC)cc3nc2c1 | 7.1 | inactive | Active | 34 |  |  | 2.17 |  | inactive | Active | > 100 | Active | > 100 | 91.7 | > 100 | 76.6 | 85.2 | 80.3 | 83.8 |  |
| CCCCCN1C(=O)CN/C1=N\c1ccc2cc3ccc(/N=C4\NCC(=O)N4CCCCC)cc3nc2c1 | 2.8 | inactive | Active | 45 |  |  | 4.99 |  | inactive | Active | 15.2 | Active | 13.7 | 12.4 | 15.7 | 8.37 | 7.18 | 8.59 | 5.31 |  |

Continued, in another order:

| K (Calf thymus DNA [1]) [×10⁵ /M] | inhibition (Bos taurus [3]) | inhibition (Bos taurus [6]) | Activity (Calf thymus DNA [8]) [%] | Drug uptake (HL-60 [10]) | Drug uptake (HL-60 [12]) | logP [13] | Drug uptake (HL-60 [16]) | Activity (Calf thymus DNA [18]) | Activity (Calf thymus DNA [19]) | Compound | IC50 (L1210 [2]) [µM] | Activity (U-937) | IC50 (L1210 [4]) [µM] | IC50 (L1210 [7]) [µM] | IC50 (L1210 [11]) [µM] | IC50 (HL-60 [14]) [µM] | IC50 (HL-60 [15]) [µM] | IC50 (HL-60 [17]) [µM] | IC50 (HL-60 [20]) [µM] | also measured |
| --- | --- | --- | --- | --- | --- | --- | --- | --- | --- | --- | --- | --- | --- | --- | --- | --- | --- | --- | --- | --- |
| 4.2 | inactive | Active | 50 |  |  | 4.1 |  | inactive | Active | CCCCN1C(=O)CN/C1=N\c1ccc2cc3ccc(/N=C4\NCC(=O)N4CCCC)cc3nc2c1 | 26.1 | Active | 29.2 | 26.4 | 27.3 | 13.7 | 14.7 | 16.4 | 11.7 |  |
| 5.7 | inactive | Active | 54 | Active | Not Active | 3.21 | Not Active | inactive | Active | CCCN1C(=O)CN/C1=N\c1ccc2cc3ccc(/N=C4\NCC(=O)N4CCC)cc3nc2c1.Cl | 68 | Active | 45.8 | 44.7 | 65.4 | 74.1 | 88.6 | 95.7 | 70.6 |  |
